From PubChem BioAssay (NCI)
Values joined by “and” are separate entries in the source; they are usually repeats but may differ in a detail not shown here. Identical values can stand only once.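 Following 48 hours of exposure in 96-well plates, responses at five concentrations were used to interpolate endpoints linearly. GI50 marks 50% less growth. TGI marks complete inhibition of growth.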

What was measured:
Test in all cases: NCI-60 cell line screen, 48 h
[1] = tested on: RXF 393 renal
[2] = tested on: OVCAR-4 ovarian
[3] = tested on: RXF-631 renal
[4] = tested on: LXFL 529 NSCLC
[5] = tested on: KM20L2 colon
[6] = tested on: HT29 colon
[7] = tested on: DU-145 prostate
[8] = tested on: NCI-H522 lung
[9] = tested on: CCRF-CEM leukemia
[10] = tested on: XF 498 CNS
[11] = tested on: NCI/ADR-RES ovarian
[12] = tested on: SF-268 CNS
[13] = tested on: OVCAR-3 ovarian
[14] = tested on: HL-60(TB) leukemia
[15] = tested on: KM12 colon
[16] = tested on: RPMI-8226 leukemia
[17] = tested on: A549 NSCLC
[18] = tested on: HCC-2998 colon
[19] = tested on: M19-MEL melanoma
[20] = tested on: SF-295 CNS
[21] = tested on: UO-31 renal
[22] = tested on: SN12C renal
[23] = tested on: HCT-15 colon
[24] = tested on: SK-MEL-5 melanoma
[25] = tested on: SNB-75 CNS
[26] = tested on: OVCAR-8 ovarian
[27] = tested on: K-562 leukemia
[28] = tested on: M14 melanoma
[29] = tested on: SK-MEL-28 melanoma
[30] = tested on: EKVX NSCLC
[31] = tested on: DMS 273 small cell lung
[32] = tested on: CAKI-1 renal
[33] = tested on: A498 renal
[34] = tested on: SW-620 colon
[35] = tested on: DLD-1 colon
[36] = tested on: SR leukemia
[37] = tested on: 786-0 renal
[38] = tested on: ACHN renal
[39] = tested on: PC-3 prostate
[40] = tested on: HOP-92 NSCLC
[41] = tested on: NCI-H226 lung
[42] = tested on: HOP-62 NSCLC
[43] = tested on: TK-10 renal
[44] = tested on: COLO 205 colon
[45] = tested on: UACC-62 melanoma
[46] = tested on: SK-MEL-2 melanoma
[47] = tested on: U251 CNS
[48] = tested on: MOLT-4 leukemia
[49] = tested on: SNB-19 CNS
[50] = tested on: HOP-18 NSCLC
[51] = tested on: SK-OV-3 ovarian
[52] = tested on: MCF7 breast
[53] = tested on: IGROV1 ovarian
[54] = tested on: DMS 114 small cell lung
[55] = tested on: UACC-257 melanoma
[56] = tested on: LOX IMVI melanoma
[57] = tested on: SF-539 CNS
[58] = tested on: HCT-116 colon
[59] = tested on: NCI-H460 lung
[60] = tested on: NCI-H23 lung
[61] = tested on: MALME-3M melanoma
[62] = tested on: SNB-78 CNS
[63] = tested on: OVCAR-5 ovarian

CC(=O)O[C@@]12CO[C@@H]1C[C@H](O)[C@@]1(C)C(=O)[C@H](O)C3=C(C)[C@@H](OC(=O)[C@H](O)[C@@H](NC(=O)OC(C)(C)C)c4ccccc4)C[C@@](O)([C@@H](OC(=O)c4ccccc4)[C@H]21)C3(C)C
GI50 [1]: 25.2 nM and 16.5 nM
TGI [2]: 76100 nM
GI50 [3]: 297 nM
TGI [3]: > 56700 nM
GI50 [4]: 35.6 nM and 25.7 nM
TGI [4]: > 100000 nM
GI50 [5]: 8.18 nM
TGI [5]: 22 nM
GI50 [6]: 7.46 nM and 2.57 nM
TGI [7]: 78200 nM
GI50 [8]: 0.86 nM
GI50 [9]: 28.6 nM and 15.9 nM
TGI [9]: > 73600 nM
GI50 [10]: 39.7 nM and 31.7 nM
GI50 [11]: 680 nM
TGI [11]: 9760 nM
GI50 [12]: 67.7 nM and 39.2 nM
TGI [12]: 77600 nM
GI50 [13]: 29.6 nM and 6.42 nM
TGI [13]: 24.4 nM
GI50 [14]: 3.16 nM and 3.42 nM
GI50 [15]: 7.08 nM and 2.1 nM
TGI [15]: > 62200 nM
GI50 [16]: 5.7 nM and 3.74 nM
TGI [16]: 15600 nM
GI50 [17]: 4.54 nM
TGI [17]: > 82200 nM
GI50 [18]: 18.2 nM
GI50 [19]: 11.4 nM
TGI [19]: 21200 nM
GI50 [20]: 12.3 nM and 14.6 nM
TGI [20]: 133 nM
GI50 [21]: 247 nM
TGI [21]: 18000 nM
GI50 [22]: 22.4 nM and 8.69 nM
TGI [22]: > 68300 nM
GI50 [23]: 65.6 nM
TGI [23]: 17100 nM
GI50 [24]: 13.3 nM and 6.09 nM
TGI [24]: 17100 nM
GI50 [25]: 18.7 nM and 12.7 nM
TGI [25]: 63.7 nM
GI50 [26]: 13.9 nM and 13.8 nM
TGI [26]: > 79300 nM
GI50 [27]: 14.7 nM and 12.2 nM
TGI [27]: 71900 nM
GI50 [28]: 15.4 nM and 20.5 nM
TGI [28]: 281 nM
GI50 [29]: 32.7 nM and 35.9 nM
TGI [29]: 36500 nM
GI50 [30]: 46.4 nM
GI50 [31]: 11.2 nM and 27.1 nM
TGI [31]: 17400 nM
GI50 [32]: 146 nM
TGI [32]: 81800 nM
GI50 [33]: 51.8 nM
TGI [33]: 56100 nM
GI50 [34]: 7.64 nM and 6.46 nM
TGI [34]: > 68400 nM
GI50 [35]: 35.2 nM and 33.8 nM
TGI [35]: > 75400 nM
GI50 [36]: 15.4 nM and 4.07 nM
TGI [36]: 23500 nM
GI50 [37]: 61.2 nM and 8.24 nM
TGI [37]: > 100000 nM
GI50 [38]: 156 nM
TGI [38]: 67100 nM
TGI [39]: > 100000 nM
TGI [40]: 59400 nM
GI50 [41]: 3.66 nM
TGI [41]: 43400 nM
GI50 [42]: 84.4 nM and 42.8 nM
TGI [42]: 3780 nM
GI50 [43]: 32.7 nM and 7.88 nM
GI50 [44]: 2.3 nM and 0.963 nM
TGI [44]: 59 nM and 7.17 nM
GI50 [45]: 14.1 nM and 112 nM
GI50 [46]: 26.9 nM
GI50 [47]: 2.44 nM and 3.64 nM
TGI [47]: 28300 nM
GI50 [48]: 33.7 nM and 8.77 nM
TGI [48]: 50100 nM
GI50 [49]: 1.75 nM
TGI [50]: 74500 nM
GI50 [51]: 52.1 nM and < 17.4 nM
TGI [51]: 49.1 nM
TGI [52]: 78400 nM
GI50 [53]: 59.3 nM and 19.8 nM
TGI [53]: > 79000 nM
GI50 [54]: 3.68 nM and 3.71 nM
TGI [54]: 52.5 nM and 22.3 nM
GI50 [55]: 310 nM
TGI [55]: 57900 nM
GI50 [56]: 3.08 nM and 3.68 nM
TGI [56]: 42100 nM
GI50 [57]: 6.66 nM and 5.6 nM
TGI [57]: 61.2 nM and 25.1 nM
GI50 [58]: 2.03 nM
TGI [58]: > 100000 nM
GI50 [59]: 0.351 nM
TGI [59]: 41000 nM
GI50 [60]: 19.2 nM
TGI [60]: > 67200 nM

COc1ccc(/C(Cl)=C(/c2ccc(O)cc2)c2ccc(OCCN(C)C)cc2)cc1
TGI [1]: 18400 nM
TGI [2]: 27100 nM
TGI [3]: 36700 nM
TGI [4]: 22600 nM
TGI [5]: 11700 nM
TGI [6]: 6490 nM
TGI [8]: 25100 nM
TGI [61]: 14400 nM
TGI [10]: 10300 nM
TGI [12]: 24700 nM
TGI [13]: 28800 nM
TGI [14]: 26000 nM
TGI [15]: 21100 nM
TGI [16]: 21600 nM
TGI [17]: 26700 nM
TGI [18]: 30500 nM
TGI [19]: 18900 nM
TGI [20]: 16300 nM
TGI [21]: 19700 nM
TGI [22]: 26200 nM
TGI [62]: 29300 nM
TGI [23]: 23300 nM
TGI [24]: 16900 nM
TGI [25]: 23300 nM
TGI [63]: 26100 nM
TGI [26]: 28900 nM
TGI [28]: 4220 nM
TGI [29]: 13400 nM
TGI [30]: 30300 nM
TGI [31]: 23600 nM
TGI [32]: 27500 nM
TGI [34]: 24200 nM
TGI [35]: 31000 nM
TGI [36]: 10600 nM
TGI [37]: 18800 nM
TGI [38]: 27800 nM
TGI [41]: 34400 nM
TGI [42]: 26700 nM
TGI [43]: 34100 nM
TGI [44]: 22400 nM
TGI [45]: 32900 nM
TGI [46]: 22400 nM
TGI [47]: 23300 nM
TGI [49]: 27100 nM
TGI [50]: 25000 nM
TGI [51]: 26300 nM
TGI [53]: 33200 nM
TGI [54]: 19300 nM
TGI [55]: 9090 nM
TGI [56]: 12600 nM
TGI [57]: 23800 nM
TGI [59]: 26000 nM
TGI [60]: 29100 nM
